The results in this text go back to US20150150769A1, “COSMETIC COMPOSITIONS COMPRISING DITERPENOIC ACIDS, E.G. GIBBERELLIC ACIDS” (Cutech S.r.L., priority 2011, published 2015).

Assay [1] concerns Human anagen hair follicles. The experiment in a line: Growth (elongation) of cultured isolated human hair follicles. It counts as cell-based. As for the experimental part: (§1) Human anagen hair follicles were isolated from scalp skin taken from a single donor and transferred for cultivation in sterile 24 well plates using a modified Williams' Medium E. Cultivation took place for nine days, while the experimental treatment of the follicles started 24 hours from the beginning of the cultivation. Hair follicles were selected for the experiments after 18 h of cultivation. Only follicles showing a good vital stage and a growth of not less than 0.2 mm were considered suitable to be maintained in culture. All experimental groups and the control group were prepared by including 12 follicles, plated in 24 well plates at a density of 3 hair follicles (HFs) per well. […] The growth of the hair follicles was studied by performing image analyses on microphotographs. All hair follicles were photographed at day 5 of culture (day 4 of treatment) and then at day 9 of culture (day 8 of treatment).

Assay [2] deals with Human anagen hair follicles. In words: Histological analysis of hair follicles (anagen/catagen stage, dermopapilla morphology). The format is cell-based. The settings on record: for Anagen phase / Catagen phase: after 9 days of cultivation. The procedure: as §1
The experiment according to Examples 1 to 3 was terminated after 9 days of cultivation. Subsequently, the hair follicles were subjected to histological analysis by staining with haematossilin and eosin in order to verify the morphological state of the dermopapilla.

Consider Gibberellic acid [Gibberellin], for which the “change of hair follicle growth in comparison to the control group” value in assay [1] (Examples 7-8, 1 μg/ml, P<0.001) was −30.1%; in assay [1] (Examples 9-10, 1 μg/ml, P<0.001), −27.7%; in assay [1] (Examples 11-12, 1 μg/ml, P<0.01) it was −20%. Besides, in assay [1] (Examples 11-12, depending on the treatment dosage (0.1-1.0 μg/ml)), the “reduction of hair growth in comparison to the control group” value is “up to 20%”.

With `C=C1C[C@]23C[C@@]1(O)CC[C@H]2[C@@]12C=C[C@H](O)[C@@](C)(C(=O)O1)[C@H]2[C@@H]3C(=O)O` [Gibberellin, Gibberellic acid], the “effect on decline of the hair follicles into the catagen phase” value in assay [2] (Examples 13-14, 0.1 and 1 μg/ml, result in words) was “significantly anticipated the decline into the catagen phase”. Further, the Anagen phase was found to be 22.2 in assay [2] (Table 6, Example 13, 0.1 μg/ml) and 9.1 in assay [2] (Table 6, Example 14, 1 μg/ml). Besides, the Catagen phase is 77.8 in assay [2] (Table 6, Example 13, 0.1 μg/ml) and 90.9 in assay [2] (Table 6, Example 14, 1 μg/ml). Further, the inhibition at 1 µg/mL in assay [1] (Homo sapiens, Examples 1-3, 1 μg/ml, P<0.01, read-out: inhibitory action on hair growth in comparison with the untreated sample) stood at 19%. Besides, the “Growth of hair follicles: Elongation performance, Average” value in assay [1] (Table 1, Examples 1-3, 0.01 μg/ml, day 9 of culture) is listed as 88.2 ± 7.0 percentage of the control group; in assay [1] (Table 1, Examples 1-3, 0.1 μg/ml, day 9 of culture), 85.6 ± 5.4 percentage of the control group; in assay [1] (Table 1, Examples 1-3, 1.0 μg/ml, day 9 of culture), 80.6 ± 5.4 percentage of the control group; in assay [1] (Table 2, Examples 4-6, 0.01 μg/ml, 9 days of cultivation), 81.4 ± 5.9 percentage of the control group; in assay [1] (Table 2, Examples 4-6, 0.1 μg/ml, 9 days of cultivation), 89.8 ± 8.0 percentage of the control group; in assay [1] (Table 2, Examples 4-6, 1.0 μg/ml, 9 days of cultivation), 82.7 ± 6.6 percentage of the control group. Further, the “Growth of hair follicles: Elongation performance, Average” value is listed as 76.6 ± 4.3 percentage of the control group in assay [1] (Table 3, Examples 7-8, 0.1 μg/ml, 9 days of cultivation); 69.9 ± 3.2 percentage of the control group in assay [1] (Table 3, Examples 7-8, 1.0 μg/ml, 9 days of cultivation); 77.7 ± 5.8 percentage of the control group in assay [1] (Table 4, Examples 9-10, 0.1 μg/ml, 9 days of cultivation); 72.3 ± 4.9 percentage of the control group in assay [1] (Table 4, Examples 9-10, 1.0 μg/ml, 9 days of cultivation); 91.3 ± 4.7 percentage of the control group in assay [1] (Table 5, Examples 11-12, 0.1 μg/ml, 9 days of cultivation); 79.9 ± 5.9 percentage of the control group in assay [1] (Table 5, Examples 11-12, 1.0 μg/ml, 9 days of cultivation).
